US20230381248A1, “METHOD FOR TREATING AND/OR PREVENTING ATOPY AND ALLERGIC DISEASES BY USING BACTERIA OR COMPOSITIONS HAVING 7 ALPHA-DEHYDROXYLASE ACTIVITY, AND/OR BILE ACID RECEPTORS FXR AND/OR TGR5 AGONISTS” (NATIONAL TAIWAN UNIVERSITY HOSPITAL, priority 2022, published 2023)

Experiments:
[1] = system: PMN-MDSC and regulatory T-cell (Treg); assay: Induction of immune-regulatory cells by FxR and TGR5 agonist pre-treatment in the OVA allergic airway disease model, flow cytometry; assay type: in vivo, BALB/c mice; conditions: oral gavage 30 mg/kg/day twice a week from 3 w/o; BALF, PB, BM, Spl after aerosol OVA challenge; vs vehicle control
Method: (§1) The model uses ovalbumin (OVA) as the allergen to induce allergic airway inflammation of the mice. Briefly, allergen sensitization was induced in 5 w/o BALB/c mice by two intraperitoneal injection (i.p.) of 50 μg ovalbumin (OVA) plus 2 mg alum at 10-14-day interval. One week after the second OVA i.p. sensitization, 30-min aerosol 5% OVA inhalation challenge (ih) was performed for 3 consecutive days.
(§2) OVA-induced allergic airway disease was induced in 5 w/o BALB/c mice according to the protocol as depicted. […] Age- and sex-matched control mice were given the vehicle containing methyl cellulose.
The effects of FXR and TGR5 signaling in inducing both innate and adaptive immune-regulatory cells (i.e., PMN-MDSC and Treg) are investigated in this example. Mice were pre-treated by FxR and TGR5 agonists, followed by allergen sensitization and induction of allergic airway disease as depicted in FIG. 6. […] BALF represents bronchoalveolar lavage fluid, PB represents peripheral blood, BM represents bone marrow, Spl represents spleen. […] FoxP3 is an intracellular specific marker of regulatory T-cell and acts as a major regulator in the development and function of regulatory T-cell. **P<0.01; ***P<0.001, comparison was made by analysis of variance (ANOVA).

[2] = system: OVA-induced allergic airway disease; assay: Severity of OVA-induced allergic airway disease after FxR and TGR5 agonist pre-treatment; assay type: in vivo, BALB/c mice; conditions: oral gavage 30 mg/kg/day twice a week from 3 w/o
Method: as §1, §2
The effects of FxR and TGR5 signaling in alleviating the severity of OVA-induced allergic airway disease are investigated in this example Mice were pre-treated by FxR and TGR5 agonists, followed by sensitization and asthmatic response of mice as depicted in FIG. 6. One day after the 3rd aerosol OVA challenge, sera and bronchoalveolar lavage fluids (BALF) were collected and parameters reflecting the severity of allergic inflammation were tested. […] Neg Ctrl represents healthy control. N=12-14 mice/group.

With CC[C@H]1[C@@H](O)[C@@H]2[C@H](C[C@H](O)[C@]3(C)[C@@H]([C@H](C)C[C@H](C)C(=O)O)CC[C@@H]23)[C@@]2(C)CC[C@@H](O)C[C@@H]12 [TGR5 agonist, 6-EMCA] the “expansion of adaptive immune-regulatory cell, Treg” value [1] was “can induce the expansion”, the “expansion of innate immune-regulatory cells, PMN-MDSC” value [1] was “can induce the expansion” and the “four parameters indicative of allergic airway disease severity (seral OVA-specific IgE, BALF leukocyte counts, BALF IL-5, airway resistance to methacholine)” value ([2]; one day after 3rd aerosol OVA challenge) was “mitigated”. For the same compound, the airway disease severity ([2]; vs control mice receiving vehicle, N=12-14 mice/group) was “significantly milder airway disease”.
